# Experimental data: patent publication US20250163104A1, “MACROCYCLIC IMMUNOMODULATORS” (priority 2021, published 2025)
# Where a SMILES comes first, the peptide text is derived from it. Bridges are numbered along the chain shown (N, C = ends). [ ]: non-standard residue; d: D form. The star is where a group is joined. Phe(4-CF3) = N[C@@H](Cc1ccc(C(F)(F)F)cc1)C(=O)O; Phe(4-COOH) = N[C@@H](Cc1ccc(C(=O)O)cc1)C(=O)O; Bip = N[C@@H](Cc1ccc(-c2ccccc2)cc1)C(=O)O; Phe(3-Me) = Cc1cccc(C[C@H](N)C(=O)O)c1; 4Pal = N[C@@H](Cc1ccncc1)C(=O)O; Cha = N[C@@H](CC1CCCCC1)C(=O)O; Cit = NC(=O)NCCC[C@H](N)C(=O)O; Carboxymethyl = O=C(O)C*; Nle = CCCC[C@H](N)C(=O)O; Orn = NCCC[C@H](N)C(=O)O; Dab = NCC[C@H](N)C(=O)O; Dap = NC[C@H](N)C(=O)O
# Biological target: T1, human PD-1 / PD-L1-Ig binding on Jurkat cell line over-expressing human PD-1 (Jurkat-PD-1) (Homo sapiens, UniProt Q15116)
# T1 construct: expressed in transfected cells; host or cells: Jurkat
# T1 sequence (Q15116 25-288): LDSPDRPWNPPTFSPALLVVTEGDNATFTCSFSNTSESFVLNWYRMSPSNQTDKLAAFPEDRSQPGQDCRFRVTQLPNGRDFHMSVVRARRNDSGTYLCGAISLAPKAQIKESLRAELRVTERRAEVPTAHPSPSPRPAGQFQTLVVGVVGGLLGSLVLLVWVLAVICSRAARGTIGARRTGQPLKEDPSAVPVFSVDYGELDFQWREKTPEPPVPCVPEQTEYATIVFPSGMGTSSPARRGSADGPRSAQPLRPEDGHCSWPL
# Test: Jurkat-PD-1 Cell Binding High-Content Screening Assay (CBA)
# Assay type: cell-based
# Details: Jurkat HPD1_PDL1 IC50, Jurkat-PD-1 cells, PE-labeled PD-L1-Ig 20 nM final
# Summary of the method: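 Binding of fluorescent PD-L1-Ig (phycoerythrin linked via the Ig tag, 20 nM final) to PD-1-overexpressing Jurkat cells was imaged after a 2 h, 37° C compound pretreatment and 1 hour ligand incubation.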
row,Compound,IC50 [µM]
1,CC(C)C[C@H]1NC(=O)[C@H](CCCN)NC(=O)[C@H](CN)NC(=O)[C@H](Cc2ccc(-c3ccccc3)cc2)NC(=O)[C@H](C(C)C)NC(=O)[C@H](Cc2c[nH]c3ccccc23)NC(=O)[C@H](CC(=O)O)NC(=O)[C@H](Cc2ccc(OCC(=O)O)cc2)NC(=O)[C@H](Cc2ccncc2)NC(=O)CSC[C@@H](C(=O)N[C@@H](C)C(N)=O)NC(=O)[C@H]([C@@H](C)O)NC(=O)[C@H](C(C)C)NC(=O)[C@H](CC2CCCCC2)NC(=O)[C@H](CCN)NC1=O [Compound 1372],0.0126

# Same assay, conditions: Jurkat-PD-1 cells, PE-labeled PD-L1-Ig 20 nM final; read-out: Jurkat HPD1_PDL1 IC50
row,IC50 [µM],Compound
1,0.0447,CC(C)C[C@H]1NC(=O)[C@H](CCCN)NC(=O)[C@H](CCCNC(N)=O)NC(=O)[C@H](Cc2ccc(-c3ccccc3)cc2)NC(=O)[C@H](C(C)C)NC(=O)[C@H](Cc2c[nH]c3ccccc23)NC(=O)[C@H](CC(=O)O)NC(=O)[C@H](Cc2ccc(C(F)(F)F)cc2)NC(=O)[C@H](CN)NC(=O)CSC[C@@H](C(=O)N[C@@H](C)C(N)=O)NC(=O)[C@H]([C@@H](C)O)NC(=O)[C@H](C(C)C)NC(=O)[C@H](CC2CCCCC2)NC(=O)[C@H](CCN)NC1=O [Compound 2107] ({CH2CO}-[Dap][Phe(4-CF3)]DWV[Bip][Cit][Orn][dL][Dab][Cha]VTCA-NH2; thioether N-14)
2,0.0079,Cc1cccc(C[C@@H]2NC(=O)[C@H](CC(=O)O)NC(=O)[C@H](Cc3ccc(C(=O)O)cc3)NC(=O)[C@H](Cc3ccncc3)NC(=O)CSC[C@@H](C(=O)N[C@@H](CO)C(N)=O)NC(=O)[C@H](CCC(N)=O)NC(=O)[C@H](C(C)C)NC(=O)[C@H](CC3CCCCC3)NC(=O)[C@H](CCN)NC(=O)[C@@H](CC(C)C)NC(=O)[C@H](CCCN)NC(=O)[C@H](Cc3ccc(OCC(=O)O)cc3)NC(=O)[C@H](Cc3ccc(-c4ccccc4)cc3)NC(=O)[C@H](Cc3ccc(OCC(=O)O)cc3)NC2=O)c1 [Compound 2312] ({CH2CO}-[4Pal][Phe(4-COOH)]D[Phe(3-Me)]Y(Carboxymethyl)[Bip]Y(Carboxymethyl)[Orn][dL][Dab][Cha]VQCS-NH2; thioether N-14)
3,0.0104,CC(C)C[C@H]1NC(=O)[C@H](CCCN)NC(=O)[C@H](CCC(=O)O)NC(=O)[C@H](Cc2ccc(-c3ccccc3)cc2)NC(=O)[C@H](C(C)C)NC(=O)[C@H](Cc2c[nH]c3ccccc23)NC(=O)[C@H](CC(=O)O)NC(=O)[C@H](Cc2ccc(C(=O)O)cc2)NC(=O)[C@H](CN)NC(=O)CSC[C@@H](C(=O)N[C@@H](C)C(N)=O)NC(=O)[C@H]([C@@H](C)O)NC(=O)[C@H](C(C)C)NC(=O)[C@H](CC2CCCCC2)NC(=O)[C@H](CCN)NC1=O [Compound 2159]
4,0.0168,CC(C)C[C@H]1NC(=O)[C@H](CCCN)NC(=O)[C@H](CCC(=O)O)NC(=O)[C@H](Cc2ccc(-c3ccccc3)cc2)NC(=O)[C@H](C(C)C)NC(=O)[C@H](Cc2c[nH]c3ccccc23)NC(=O)[C@H](CC(=O)O)NC(=O)[C@H](Cc2cccnc2)NC(=O)[C@H](Cc2ccc(OCC(=O)O)cc2)NC(=O)CSC[C@@H](C(=O)N[C@@H](C)C(N)=O)NC(=O)[C@H]([C@@H](C)O)NC(=O)[C@H](C(C)C)NC(=O)[C@H](CC2CCCCC2)NC(=O)[C@H](CCN)NC1=O [Compound 2173]

# The remaining lines, values behind:
row,Compound,IC50 [µM]
1,CC(C)[C@@H]1NC(=O)[C@H](Cc2c[nH]c3ccccc23)NC(=O)[C@H](CC(=O)O)NC(=O)[C@H](Cc2ccc(O)cc2)NC(=O)[C@H](CC(N)=O)NC(=O)CSC[C@@H](C(=O)N[C@@H](C)C(N)=O)NC(=O)[C@H]([C@@H](C)O)NC(=O)[C@H](C(C)C)NC(=O)[C@H](CC2CCCCC2)NC(=O)[C@H](CCN)NC(=O)[C@@H](Cc2ccccc2)NC(=O)[C@H](CCCN)NC(=O)[C@H](CCC(=O)O)NC(=O)[C@H](Cc2ccc(-c3ccccc3)cc2)NC1=O [Compound 1435] ({CH2CO}-NYDWV[Bip]E[Orn][dF][Dab][Cha]VTCA-NH2; thioether N-14),0.0531
2,Cc1cccc(C[C@@H]2NC(=O)[C@H](CC(=O)O)NC(=O)[C@H](Cc3ccncc3)NC(=O)[C@H](Cc3ccc(OCC(=O)O)cc3)NC(=O)CSC[C@@H](C(=O)N[C@@H](C)C(N)=O)NC(=O)[C@H]([C@@H](C)O)NC(=O)[C@H](C(C)C)NC(=O)[C@H](CC3CCCCC3)NC(=O)[C@H](CCN)NC(=O)[C@@H](CC(C)C)NC(=O)[C@H](CCCN)NC(=O)[C@H](CCC(=O)O)NC(=O)[C@H](Cc3ccc(-c4ccccc4)cc3)NC(=O)[C@H](C(C)C)NC2=O)c1 [Compound 1419] ({CH2CO}-Y(Carboxymethyl)[4Pal]D[Phe(3-Me)]V[Bip]E[Orn][dL][Dab][Cha]VTCA-NH2; thioether N-14),0.0072
3,CC(C)C[C@@H]1NC(=O)[C@H](CCN)NC(=O)[C@@H](CC(C)C)NC(=O)[C@H](CC(N)=O)NC(=O)[C@H](C(C)C)NC(=O)[C@H](Cc2ccc(-c3ccccc3)cc2)NC(=O)[C@H](C(C)C)NC(=O)[C@H](Cc2c[nH]c3ccccc23)NC(=O)[C@H](CC(=O)O)NC(=O)[C@H](Cc2ccc(O)cc2)NC(=O)[C@H](CC(N)=O)NC(=O)CSC[C@@H](C(=O)N[C@@H](C)C(N)=O)NC(=O)[C@H]([C@@H](C)O)NC(=O)[C@H](C(C)C)NC1=O [Compound 1036] ({CH2CO}-NYDWV[Bip]VN[dL][Dab]LVTCA-NH2; thioether N-14),0.0264
4,CC[C@H](C)[C@@H]1NC(=O)[C@H](Cc2ccc(-c3ccccc3)cc2)NC(=O)[C@H](C(C)C)NC(=O)[C@H](Cc2c[nH]c3ccccc23)NC(=O)[C@H](CC(=O)O)NC(=O)[C@H](Cc2ccc(C(=O)O)cc2)NC(=O)[C@H](Cc2ccc(OCC(=O)O)cc2)NC(=O)CSC[C@@H](C(=O)N[C@@H](C)C(N)=O)NC(=O)[C@H]([C@@H](C)O)NC(=O)[C@H](C(C)C)NC(=O)[C@H](Cc2ccc(O)cc2)NC(=O)[C@H](CCN)NC(=O)[C@@H](CC(C)C)NC(=O)[C@H](CCCN)NC1=O [Compound 1679] ({CH2CO}-Y(Carboxymethyl)[Phe(4-COOH)]DWV[Bip]I[Orn][dL][Dab]YVTCA-NH2; thioether N-14),0.0922
5,CCCC[C@@H]1NC(=O)[C@H](Cc2c[nH]c3ccccc23)NC(=O)[C@H](CC(=O)O)NC(=O)[C@H](Cc2ccc(OCC(=O)O)cc2)NC(=O)[C@H](CN)NC(=O)CSC[C@@H](C(=O)N[C@@H](C)C(N)=O)NC(=O)[C@H]([C@@H](C)O)NC(=O)[C@H](C(C)C)NC(=O)[C@H](CC2CCCCC2)NC(=O)[C@H](CCN)NC(=O)[C@@H](CC(C)C)NC(=O)[C@H](CCCN)NC(=O)[C@H](CCCNC(N)=O)NC(=O)[C@H](Cc2ccc(-c3ccccc3)cc2)NC1=O [Compound 1358] ({CH2CO}-[Dap]Y(Carboxymethyl)DW[Nle][Bip][Cit][Orn][dL][Dab][Cha]VTCA-NH2; thioether N-14),0.0073
6,Cc1cccc(C[C@@H]2NC(=O)[C@H](CC(=O)O)NC(=O)[C@H](Cc3ccc(OCC(=O)O)cc3)NC(=O)[C@H](CN)NC(=O)CSC[C@@H](C(N)=O)NC(=O)[C@H]([C@@H](C)O)NC(=O)[C@H](C(C)C)NC(=O)[C@H](CC3CCCCC3)NC(=O)[C@H](CCN)NC(=O)[C@@H](CC(C)C)NC(=O)[C@H](CCCN)NC(=O)[C@H](Cc3ccc(OCC(=O)O)cc3)NC(=O)[C@H](Cc3ccc(-c4ccccc4)cc3)NC(=O)[C@H](Cc3ccc(OCC(=O)O)cc3)NC2=O)c1 [Compound 1783] ({CH2CO}-[Dap]Y(Carboxymethyl)D[Phe(3-Me)]Y(Carboxymethyl)[Bip]Y(Carboxymethyl)[Orn][dL][Dab][Cha]VTC-NH2; thioether N-14),0.0144
